Publication PMC8145596, “Novel Chemically Modified Curcumin (CMC) Derivatives Inhibit Tyrosinase Activity and Melanin Synthesis in B16F10 Mouse Melanoma Cells” (Biomolecules, 2021)

Assays:
breast cancer cells = test system: breast cancer cells; set-up: method as in PMID 31505772; conditions: cited from earlier work
MTS cell viability assay = assay type: cell-based, mouse; conditions: mouse, B16F10 mouse melanoma cells, 48 h, B16F10
Experimental: B16F10 mouse melanoma cells (CRL-6475™) were obtained from American Type Culture Collection (ATCC, Manassas, VA, USA) and cultured using Dulbecco’s Modified Eagle Medium (DMEM) supplemented with 10% heat-inactivated fetal bovine serum (HI-FBS) and 1% antibiotics (penicillin-streptomycin) in a humidified incubator with 95% air—5% CO2 at 37 °C. In order to test the four CMCs (CMC2.14, CMC2.24, CMC2.5 and CMC2.23) to that of PC, for their effects on melanin content, we first screened them for cytotoxicity using a tetrazolium assay with MTS (Promega CellTiter Aqueous One). Briefly, B16F10 cells were seeded at 4 × 10^3 cells/well in a 96-well plate for 24 h. The compounds were diluted using culture medium to yield a final DMSO in all groups of 0.16% and added to the cell monolayers in wells after 24 h. Control was treated with 0.16% DMSO. At the end of 48 h, the medium was aspirated and replaced by 100 μL of fresh medium. 20 μL of MTS reagent was then added, and the plate was incubated at 37 °C for 40 min. At this point, the absorbance of 100 μL aliquots was read at 490 nm using a microplate reader. Cell viability was calculated from the absorbance values relative to control groups and expressed in %.

[1] = test system: MNT-1 human melanoma cells; assay: MTS cytotoxicity assay in MNT-1 cells; assay type: cell-based; conditions: 20 µM, 48 h
Experimental: II. Experiments in MNT-1 human melanoma cells
MNT-1 cells (kindly provided by Dr. Michael Marks, University of Pennsylvania) were cultured using DMEM supplemented with 1 % MEM (minimum essential medium), 18 % HI-FBS, 10 % AIM-V medium (Gibco) and 1 % antibiotic mixture.
MNT-1 human melanoma cells (2 × 10^4 cells/ well) were seeded in a 96-well plate and cultured for 96 h. After this, the test compounds were added in complete medium and cultures were maintained for 48 h, followed by conducting the MTS assay to detect cytotoxicity similar to methods reports in main text. The results were expressed as % normalized to untreated control group.
MNT-1 human melanoma cells were seeded at 2.2 × 10^5 cells/well in 12-well plates and incubated for 24 hours. […] Briefly, the absorbance of melanin was measured at 475 nm and was normalized to the total protein contents and reported as relative melanin levels as a % of control.
Figure S3: Viability of MNT-1 cells treated with A) PC, CMC2.14 and CMC2.5 and B) CMC2.23 and CMC2.24 for a duration of 48 h evaluated by MTS assay; Data for A)-B) are mean ± SD of 3-4 determinations; C) Melanin content in cultures of MNT-1 cells treated for 48 h with different concentrations of PC and CMCs, Data are mean ± SD of values combined from two independent experiments. * p < 0.05 vs. control (Ctrl); One-way ANOVA with Tukey’s […]

1,7-bis(4-hydroxy-3-methoxyphenyl)-1,6-heptadien-3,5-dione [PC, reference compound]
concentrations highly cytotoxic to breast cancer cells (breast cancer cells): > 10 µM

COC(=O)/C(C(=O)/C=C/c1ccc(O)cc1)=C(O)\C=C\c1ccc(O)cc1 [CMC2.14]
viability at 48 h, 20 µM (MTS cell viability assay; 20 µM): 72.2%
viability at 48 h, 25 µM (MTS cell viability assay; 25 µM): 55.5%

O=C(/C=C/c1ccc(O)cc1)/C(C(=O)Nc1ccccc1)=C(O)/C=C/c1ccc(O)cc1 [CMC2.24]
cytotoxicity in MNT-1 cells [1]: nontoxic
